Assay: Phase 1 safety: adverse events
Assay type: in vivo, human
Protocol: All patients underwent a complete medical history and physical examination, assessment of ECOG performance status and vital signs, and laboratory analysis of haematology, coagulation, clinical chemistry, and urine. Three serial resting and supine 12-lead electrocardiograms were conducted over 5–10 min and cardiac ejection fraction was assessed by echocardiogram or MUGA. In addition, a complete ophthalmologic examination (including visual acuity; fundoscopy and tonometry; optical coherence tomography; and slit-lamp, lens, vitreous, and fluorescence dye examinations) was performed on each patient. These assessments were repeated throughout study participation and/or as clinically indicated. Adverse events were reviewed on an ongoing basis.
Adverse events and serious AEs (SAEs) were coded by preferred term (PT) and system organ class using the Medical Dictionary for Regulatory Activities version 12.0. The severity of AEs was assessed by investigators using the National Cancer Institute Common Terminology Criteria for Adverse Events version 3.0. Two AEs of special interest were captured under the composite terms of ‘combined rash' and ‘combined ocular events.' The ‘combined rash' term included the PTs of dermatitis acneiform, acne, skin exfoliation, and any term containing ‘rash'. The ‘combined ocular events' term included the PTs of retinal deposits, retinopathy, papilloedema, chorioretinopathy, macular oedema, retinal detachment, and retinal disorder.
All patients who received ⩾1 dose of binimetinib were included in the safety analysis. Patients in the safety analysis who had ⩾1 measurable lesion at baseline and at least 1 post-baseline disease assessment were evaluable for efficacy. Kaplan–Meier estimates of progression-free survival (PFS) and overall survival (OS) were performed for patients in the expansion phase ([Kaplan and Meier, 1958]) using SAS Version 9.2 (SAS Institute Inc., Cary, NC, USA).

[1] = AEs regardless of causality, N=93

Cn1cnc2c(F)c(Nc3ccc(Br)cc3F)c(C(=O)NOCCO)cc21 [binimetinib]
Anaemia (80 mg BID (n=4), Gr 1/2): 0 (0) n (%) | Anorexia (80 mg BID (n=4), Gr 1/2): 1 (25) n (%) | Combined ocular events (80 mg BID (n=4), Gr 1/2): 1 (25) n (%) | Combined rash (80 mg BID (n=4), Gr 1/2): 0 (0) n (%) | Constipation (80 mg BID (n=4), Gr 1/2): 0 (0) n (%) | Diarrhoea (80 mg BID (n=4), Gr 1/2): 1 (25) n (%) | Dizziness (80 mg BID (n=4), Gr 1/2): 0 (0) n (%) | Dyspnoea (80 mg BID (n=4), Gr 1/2): 1 (25) n (%) | Fatigue (80 mg BID (n=4), Gr 1/2): 1 (25) n (%) | Nausea (80 mg BID (n=4), Gr 1/2): 1 (25) n (%) | Peripheral oedema (80 mg BID (n=4), Gr 1/2): 2 (50) n (%) | Pyrexia (80 mg BID (n=4), Gr 1/2): 0 (0) n (%) | Vomiting (80 mg BID (n=4), Gr 1/2): 2 (50) n (%) | Abdominal pain (80 mg BID (n=4), Gr 3/4): 0 (0) n (%) | Anaemia (80 mg BID (n=4), Gr 3/4): 0 (0) n (%) | Anorexia (80 mg BID (n=4), Gr 3/4): 0 (0) n (%) | Combined ocular events (80 mg BID (n=4), Gr 3/4): 1 (25) n (%) | Combined rash (80 mg BID (n=4), Gr 3/4): 1 (25) n (%) | Constipation (80 mg BID (n=4), Gr 3/4): 0 (0) n (%) | Diarrhoea (80 mg BID (n=4), Gr 3/4): 0 (0) n (%) | Dizziness (80 mg BID (n=4), Gr 3/4): 0 (0) n (%) | Dyspnoea (80 mg BID (n=4), Gr 3/4): 0 (0) n (%) | Fatigue (80 mg BID (n=4), Gr 3/4): 0 (0) n (%) | Nausea (80 mg BID (n=4), Gr 3/4): 0 (0) n (%) | Peripheral oedema (80 mg BID (n=4), Gr 3/4): 0 (0) n (%) | Pyrexia (80 mg BID (n=4), Gr 3/4): 0 (0) n (%) | Vomiting (80 mg BID (n=4), Gr 3/4): 0 (0) n (%) | AEs resulting in treatment discontinuation, patients (80 mg BID dose group): 25% | AEs that resulted in dose reduction, patients (80 mg BID dose group): 75% | Incidence of ocular events (80 mg BID dose group): 50% | Incidence of peripheral oedema (80 mg BID dose group): 50% | Median time to onset of ocular events (18 patients with ocular events, range, 2–168 days): 17 days | Patients who experienced grade 2 events [1]: 41% | Patients who experienced grade 3 events [1]: 49% | Grade 3 abdominal pain (N=93): 4% | Grade 3 anaemia (N=93): 11% | Grade 3 dehydration (N=93): 4% | Grade 4 AEs, patients (N=93): 6% | Grade 4 anaemia (N=93): 3% | Grade 5 events (N=93): no grade 5 events | Abdominal pain (Total (N=93), all grades): 20 (22) n (%) | Anaemia (Total (N=93), all grades): 24 (26) n (%) | Anorexia (Total (N=93), all grades): 18 (19) n (%) | Combined ocular events (Total (N=93), all grades): 18 (19) n (%) | Combined rash (Total (N=93), all grades): 75 (81) n (%) | Constipation (Total (N=93), all grades): 18 (19) n (%) | Diarrhoea (Total (N=93), all grades): 47 (51) n (%) | Dizziness (Total (N=93), all grades): 14 (15) n (%) | Dyspnoea (Total (N=93), all grades): 17 (18) n (%) | Fatigue (Total (N=93), all grades): 40 (43) n (%) | Nausea (Total (N=93), all grades): 52 (56) n (%) | Peripheral oedema (Total (N=93), all grades): 43 (46) n (%) | Pyrexia (Total (N=93), all grades): 17 (18) n (%) | Vomiting (Total (N=93), all grades): 48 (52) n (%) | Diarrhoea, patients (all dose levels, all grades): 51% | Fatigue, patients (all dose levels, all grades): 43% | Nausea, patients (all dose levels, all grades): 56% | Ocular events (combined), patients (all dose levels, all grades): 19% | Peripheral oedema, patients (all dose levels, all grades): 46% | Rash (combined rash and related skin disorders), patients (all dose levels, all grades): 81% | Vomiting, patients (all dose levels, all grades): 52% | AEs of increased blood CK, patients (all patients): 13% | AEs of increased blood CK-MB, patients (all patients): 1% | Combined rash grade 1, patients (all patients): 44% | Combined rash grade 2, patients (all patients): 33% | Discontinuation due to combined rash (all patients): 2% | Discontinuation due to fatigue (all patients): 3% | Discontinuation due to nausea (all patients): 3% | Discontinuation due to small intestinal obstruction (all patients): 2% | Dose modification for AEs of increased blood CK, patients (all patients): 4% | Dose reduction due to chorioretinopathy (all patients): 9% | Dose reduction due to combined rash (all patients): 3% | Dose reduction due to diarrhoea (all patients): 2% | Dose reduction due to fatigue (all patients): 2% | Dose reduction due to increased CK (all patients): 2% | Dose reduction due to macular oedema (all patients): 2% | Dose reduction due to myodesopsia (all patients): 2% | Dose reduction due to photopsia (all patients): 3% | Dose reduction due to retinal detachment (all patients): 3% | Dose reduction due to retinopathy (all patients): 2% | Dose reduction due to visual impairment (all patients): 2% | Dose reduction due to vomiting (all patients): 2% | Grade 3 ocular event of chorioretinopathy, patients (all patients): 1% | Maximum reported SAE severity grade 2, patients (all patients): 5% | Maximum reported SAE severity grade 3, patients (all patients): 22% | Maximum reported SAE severity grade 4, patients (all patients): 3% | Maximum reported severity of nausea, vomiting, or diarrhoea (all patients): either grade 1 or grade 2 | Ocular events grade 1, patients (all patients): 5% | Ocular events grade 2, patients (all patients): 13% | Peripheral oedema maximum severity grade 1, patients (all patients): 32% | Peripheral oedema maximum severity grade 2, patients (all patients): 14% | Permanent discontinuation for peripheral oedema, patients (all patients): 1% | SAE anaemia (all patients): 4% | SAE bacteraemia (all patients): 2% | SAE dehydration (all patients): 2% | SAE gastrointestinal haemorrhage (all patients): 2% | SAE pneumonia (all patients): 2% | SAE small intestinal obstruction (all patients): 2% | SAE ulcer haemorrhage (all patients): 2% | Grade 1 venous stasis retinopathy, patients (all patients, led to permanent discontinuation): 1% | Combined rash grade 3, patients (all patients, required dose modification or discontinuation): 3% | Patients who died during the study or within 30 days of the last dose (cause of death disease progression in all): 22% | Patients reporting SAEs (during the study or within 30 days of the last dose, all patients): 30% | Increased CK, patients (laboratory values, all patients): 69% | Ocular events recovering/resolving (of patients with ocular events): 17% | Ocular events with complete resolution (of patients with ocular events): 78% | Ocular events with stable retinal findings at treatment discontinuation (of patients with ocular events): 6% | Clinically significant CK values, patients (shifted by ⩾3 grades from baseline and/or grade 4): 10%

Reference: paper PMC5344293, “A phase 1 dose-escalation and expansion study of binimetinib (MEK162), a potent and selective oral MEK1/2 inhibitor” (British Journal of Cancer, 2017)
